Source: PubChem BioAssay AID652112 (The Scripps Research Institute Molecular Screening Center, 2013)

Each molecule was assayed against Serine/threonine-protein phosphatase PP1-alpha catalytic subunit (Homo sapiens) (UniProt P62136) (assay: dose-dependent PP1 inhibition, physiologic substrate – biochemical, radiolabel, phosphorylase substrate, powder samples, orthogonal assay for PP1 inhibitor probe project, dose response (AID 652112)). Conditions: purified PP1, 32P/33P-phosphorylase dephosphorylation, scintillation.
Sequence of Serine/threonine-protein phosphatase PP1-alpha catalytic subunit (Homo sapiens) (P62136 whole entry, looked up): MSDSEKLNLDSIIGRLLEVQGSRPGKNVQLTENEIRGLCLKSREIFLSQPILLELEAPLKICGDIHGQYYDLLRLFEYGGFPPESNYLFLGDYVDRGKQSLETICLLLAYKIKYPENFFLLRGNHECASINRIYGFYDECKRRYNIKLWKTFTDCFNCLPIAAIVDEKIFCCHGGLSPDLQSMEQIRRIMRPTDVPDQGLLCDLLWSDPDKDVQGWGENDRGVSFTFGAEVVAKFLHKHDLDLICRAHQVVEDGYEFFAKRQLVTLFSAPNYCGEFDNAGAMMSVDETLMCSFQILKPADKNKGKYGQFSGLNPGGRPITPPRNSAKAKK
`CCn1c2ccccc2c2cc(NC(=O)COC(=O)c3ccc(NC(=O)CC#N)cc3)ccc21` showed an IC50 of 38 µM. With `COc1ccc(NC(=O)C2C3CCC(O3)C2C(=O)O)c(OC)c1` (stereo not given) the IC50 was 18.9 µM. Molecule `CCOC(=O)c1sc2nc3c(SCC(=O)O)cc(C(=O)c4cc(F)ccc4O)cn3c(=O)c2c1C` has an IC50 of 8.54 µM. `N#Cc1c(-c2ccc(Cl)cc2)cc(-c2cccs2)nc1SCC(=O)O` gave an IC50 of 21.9 µM. Work on `CN1CCN(C(c2ccccn2)c2cc(Cl)c3cccnc3c2O)CC1` (stereo not given) yielded an IC50 of 4.89 µM.
